From US6022885A, “Pyrrolidine and thiazole derivatives with antibacterial and . metallo-.beta-lactamase inhibitory properties” (SmithKline Beecham p.l.c., priority 1995, dated 2000)
Where two headings read alike, the source gives them in different places.

What was measured:
[1] = molecular target: B. fragilis CfiA metallo-β-lactamase (Bacteroides fragilis, UniProt P25910); assay: I50 screen, nitrocefin reporter substrate; assay type: biochemical; settings: 25 mM PIPES pH 7, 37° C., nitrocefin 91 μM, 5 minute preincubation, Zn^2+ 100 μM
Protocol: (§1) The inhibitory activity of the compounds of the invention was measured in 25 mM PIPES pH 7 buffer at 10 concentrations (1000, 333, 111, 37, 12.3, 4.1, 1.4 0.46, 0.15 and 0.05 μM) at 37° C. using nitrocefin (91 μM, final concentration) as the reporter substrate. The assays were performed with a 5 minute preincubation of enzyme and inhibitor and were conducted in the presence of added zinc sulphate (Zn^2+ 100 μM, final concentration). The methodology is described in detail in the following references: Payne et al (1991), J. Antimicrob. Chemother., 28:255; Payne et al (1994), Antimicrob. Agents and Chemother., 38:767.

[2] = molecular target: T1, Bacillus cereus II metallo-β-lactamase (Bacillus cereus, UniProt P04190); assay: I50 screen, nitrocefin reporter substrate; assay type: biochemical; settings: 25 mM PIPES pH 7, 37° C., nitrocefin 91 μM, 5 minute preincubation, Zn^2+ 100 μM
T1 construct: nitrocefin assay with added zinc
Protocol: as §1

[3] = molecular target: T2, Xanthomonas maltophilia L-1 metallo-β-lactamase (Stenotrophomonas maltophilia, UniProt P52700); assay: I50 screen, nitrocefin reporter substrate; assay type: biochemical; settings: 25 mM PIPES pH 7, 37° C., nitrocefin 91 μM, 5 minute preincubation, Zn^2+ 100 μM
T2 construct: nitrocefin assay with added zinc
Protocol: as §1

B. fragilis 460 = assay: Antibacterial activity (MIC) alone and in combination with carbapenem antibiotics, B. fragilis 460; assay type: cell-based, Bacteroides fragilis
Text: (§2) Antibacterial activity of compounds of the invention in combination with carbapenem antibiotics against strains of Bacteroides fragllis which produce metallo-β-lactamase:
(§3) [MIC =minimum inhibitory concentration (μg/ml)]

B. fragilis 262 = assay: Antibacterial activity (MIC) alone and in combination with carbapenem antibiotics, B. fragilis 262; assay type: cell-based, Bacteroides fragilis
Text: as §2, §3

[4] = read-out: I50 values against B. fragilis CfiA metallo-β-lactamase
[5] = I50 values against B. fragilis CfiA metallo-β-lactamase
[6] = Bacteroides fragilis, alone, B. fragilis 460, CfiA, read-out: MIC alone
[7] = Bacteroides fragilis, alone, B. fragilis 262, CfiA, read-out: MIC alone

T2 sequence (P52700 34-290): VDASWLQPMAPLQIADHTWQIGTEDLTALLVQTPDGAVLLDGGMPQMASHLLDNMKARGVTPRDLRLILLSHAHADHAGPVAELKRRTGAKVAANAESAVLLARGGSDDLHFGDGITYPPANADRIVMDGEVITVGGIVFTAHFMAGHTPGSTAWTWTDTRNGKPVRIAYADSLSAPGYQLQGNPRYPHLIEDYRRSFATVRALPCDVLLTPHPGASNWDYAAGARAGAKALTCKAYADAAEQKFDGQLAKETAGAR
Chain of B. fragilis CfiA metallo-β-lactamase (P25910 19-249): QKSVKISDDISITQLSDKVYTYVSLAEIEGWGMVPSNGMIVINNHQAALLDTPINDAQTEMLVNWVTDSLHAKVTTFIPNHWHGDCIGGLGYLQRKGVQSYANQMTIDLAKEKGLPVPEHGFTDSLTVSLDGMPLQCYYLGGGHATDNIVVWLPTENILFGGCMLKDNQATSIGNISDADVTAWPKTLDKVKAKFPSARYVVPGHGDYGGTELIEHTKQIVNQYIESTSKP
T1 sequence (P04190 31-257): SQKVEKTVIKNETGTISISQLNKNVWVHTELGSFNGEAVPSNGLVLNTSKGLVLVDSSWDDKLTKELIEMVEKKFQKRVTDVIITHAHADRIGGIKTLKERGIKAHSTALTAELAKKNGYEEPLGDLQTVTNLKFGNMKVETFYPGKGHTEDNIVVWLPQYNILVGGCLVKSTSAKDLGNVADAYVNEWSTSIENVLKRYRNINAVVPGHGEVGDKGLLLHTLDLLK

| SMILES | IC50 [1, 4] | further results |
| --- | --- | --- |
| CC1(C)[C@H](C(=O)O)N(C(=O)[C@@H](CS)Cc2ccccc2)C[S+]1[O-] (single isomer, unassigned) [Example 26] | < 1 µM |  |
| CC1(C)[C@H](C(=O)O)N(C(=O)[C@@H](CS)Cc2ccccc2)C[S+]1[O-] (single isomer, unassigned) [Example 27] |  | activity against Bacillus cereus II metallo-β-lactamase [2]: weak but significant activity; activity against Xanthomonas maltophilia L-1 metallo-β-lactamase [3]: weak but significant activity |
| CC1(C)SCN(C(=O)C(CS)Cc2ccccc2)[C@H]1C(=O)O (stereo partly drawn) [Example 2, 3-[2'(RS)-benzyl-3'-mereaptopropionyl]-4(S)-carboxy-5,5-dimethylthiazolidine] | < 1 µM |  |
| CC(CS)C(=O)N1CCC[C@@H]1C(=O)O (stereo partly drawn) [Example 4, N-[3'-Mercapto-2'(RS)-methylpropionyl]-D-proline] |  | IC50 [1, 5]: < 500 µM |
| C[C@H](CS)C(=O)N1CCC[C@@H]1C(=O)O [Example 6, N-(3'-mercapto-2'(S)-methylpropionyl)-D-proline] |  | IC50 [1, 5]: < 500 µM |
| CC1(C)SCN(C(=O)CCS)[C@H]1C(=O)O [Example 8, 3-[3'-Mercaptopropionyl]-4(S)-carboxy-5,5-dimethylthiazolidine] | < 500 µM |  |
| CC1(C)SCN(C(=O)C(CS)Cc2ccccc2)[C@@H]1C(=O)O (stereo partly drawn) [Example 12, 3-[2'(RS)-benzyl-3'-mercaptopropionyl]-4(R)-carboxy-5,5-dimethylthiazolidine] | < 500 µM |  |
| CC(CS)C(=O)N1CSC(C)(C)[C@@H]1C(=O)O (stereo partly drawn) [Example 14, 3-[3'-Mercapto-2'(S)-methylpropionyl]-4(S)-carboxy-5,5-dimethylthiazolidine] | < 500 µM |  |
| CC1(C)SCN(C(=O)C(CS)Cc2ccccc2)C1C(=O)O [Example 19, 3-[2'(R)-benzyl-3'-mercaptopropionyl]-4(S)-carboxy-5,5-dimethylthiazolidine] |  | activity against Bacillus cereus II metallo-β-lactamase [2]: weak but significant activity; activity against Xanthomonas maltophilia L-1 metallo-β-lactamase [3]: weak but significant activity |
| CC1(C)SCN(C(=O)[C@@H](CS)Cc2ccccc2)[C@H]1C(=O)O [Example 20, 3-[2'(S)-benzyl-3'-mercaptopropionyl]-4(S)-carboxy-5,5-dimethylthiazolidine] | < 1 µM | MIC (B. fragilis 460; [6]): > 512 µg/mL; MIC (B. fragilis 262; [7]): > 512 µg/mL |
| CC(CS)C(=O)N1CSC(C)(C)C1C(=O)O [Example 21, 3-[3'-Mercapto-2'(R)-methylpropionyl]-4(S)-carboxy-5,5-dimethylthiazolidine] |  | activity against Bacillus cereus II metallo-β-lactamase [2]: weak but significant activity; activity against Xanthomonas maltophilia L-1 metallo-β-lactamase [3]: weak but significant activity |
| CC(CS)C(=O)N1CSC(C)(C)C1C(=O)O [Example 23, 3-[Mercapto-2'(S)-methylpropionyl]-4(R)-carboxy-5,5-dimethylthiazolidine] | < 500 µM |  |
| CC1(C)SCN(C(=O)C(CS)CCc2ccccc2)[C@H]1C(=O)O (stereo partly drawn) [Example 32, 3-[2'(RS)-mercaptomethyl-4'-phenylbutanoyl]-4(S)-carboxy-5,5-dimethylthiazolidine] | < 500 µM |  |
| C[C@@H](O)[C@H]1C(=O)N2C(C(=O)O)=C(SCCN=CN)C[C@H]12 [Imipenem] |  | MIC (B. fragilis 460; [6]): 16 µg/mL; MIC (B. fragilis 262; [7]): 4 µg/mL |
| C[C@@H](O)[C@H]1C(=O)N2C(C(=O)O)=C(S[C@@H]3CN[C@H](C(=O)N(C)C)C3)[C@H](C)[C@H]12 [Meropenem] |  | MIC (B. fragilis 460; Bacteroides fragilis, 460, read-out: MIC alone): 128 µg/mL; MIC (B. fragilis 262; Bacteroides fragilis, 262, read-out: MIC alone): 128 µg/mL |
| C[C@H](CS)C(=O)N1CCC[C@H]1C(=O)O [captopril, N-(3'-mercapto-2'(S)-methylpropionyl)-L-proline, reference compound] |  | activity against Bacillus cereus II metallo-β-lactamase [2]: weak but significant activity; activity against Xanthomonas maltophilia L-1 metallo-β-lactamase [3]: weak but significant activity |

Second part, led by results:

| IC50 [1, 4] | SMILES | further results |
| --- | --- | --- |
| < 500 µM | O=C(O)[C@H]1CSCN1C(=O)C(CS)Cc1ccccc1 (single isomer, unassigned) [Example 30, 3-[2'(R or S)-benzyl-3'-mercaptopropionyl]-4(S)-carboxythiazolidine] |  |
| < 500 µM | O=C(O)[C@H]1CSCN1C(=O)C(CS)Cc1ccccc1 (single isomer, unassigned) [Example 31, 3-[2'(S or R)-benzyl-3'-mercaptopropionyl]-4(S)-carboxythiazolidine] |  |
| < 500 µM | O=C(O)[C@H]1CCCN1C(=O)C(CS)Cc1ccccc1 (stereo partly drawn) [Example 16, N-[2'(PS)-benzyl-3'-mercaptopropionyl]-D-proline] |  |
| < 500 µM | O=C(O)[C@H]1CSCN1C(=O)C(CS)Cc1ccccc1 (stereo partly drawn) [Example 18, 3-[2'(RS)-benzyl-3'-mercaptopropionyl]-4(S)-carboxythiazolidine] |  |
| < 500 µM | O=C(O)[C@@H]1CCCN1C(=O)C(CS)Cc1ccccc1 (stereo partly drawn) [Example 25, N-[2'(RS)-benzyl-3'-mercaptopropionyl]-L-proline] |  |
| < 500 µM | CC1(C)SCN(C(=O)[C@@H](CS)Cc2ccccc2)[C@@H]1C(=O)O [Example 28, 3-[2'(S)-benzyl-3'-mercaptopropionyl]-4(R)-carboxy-5,5-dimethylthiazolidine] |  |
| < 500 µM | CC1(C)SCN(C(=O)[C@H](CS)Cc2ccccc2)[C@@H]1C(=O)O [Example 29, 3-[2'(R)-benzyl-3'-mercaptopropionyl]-4(R)-carboxy-5,5-dimethylthiazolidine] |  |
| < 500 µM | O=C(O)[C@H]1CSCN1C(=O)C(CS)CCCc1ccccc1 (stereo partly drawn) [Example 33, 3-[2'(RS)-mercaptomethyl-5'-phenylpentanoyl]-4(S)-carboxythiazolidine] |  |
